In US10865208B2, “ATG7 inhibitors and the uses thereof” (Millennium Pharmaceuticals, Inc., priority 2016, dated 2020):
pIC50: −log10 of the molar value.

Biological target: recombinant human His-ATG7 enzyme (Homo sapiens (Human), UniProt O95352)
Assay: ATG7 Enzyme Assay (HTRF/FRET, ATG3-GST and Flag-Gabarap)
Type: biochemical
Conditions: for inhibition at 0.111 µM: Concentration 0.111 μM, read-out: Percent Inhibition
Summary of the method: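 HTRF read-out after 2 h at 24° C, using Eu-cryptate anti-Flag and XL-APC anti-GST antibodies in an EDTA stop buffer. The preceding 105 min, 24° C reaction (pH 7.5) held 10 μM ATP, 5 nM each ATG3-GST and Flag-Gabarap, and 0.15 nM human His-ATG7. Values are IC50 or percent inhibition at one concentration.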

recombinant human His-ATG7 enzyme, sequence (O95352 whole entry): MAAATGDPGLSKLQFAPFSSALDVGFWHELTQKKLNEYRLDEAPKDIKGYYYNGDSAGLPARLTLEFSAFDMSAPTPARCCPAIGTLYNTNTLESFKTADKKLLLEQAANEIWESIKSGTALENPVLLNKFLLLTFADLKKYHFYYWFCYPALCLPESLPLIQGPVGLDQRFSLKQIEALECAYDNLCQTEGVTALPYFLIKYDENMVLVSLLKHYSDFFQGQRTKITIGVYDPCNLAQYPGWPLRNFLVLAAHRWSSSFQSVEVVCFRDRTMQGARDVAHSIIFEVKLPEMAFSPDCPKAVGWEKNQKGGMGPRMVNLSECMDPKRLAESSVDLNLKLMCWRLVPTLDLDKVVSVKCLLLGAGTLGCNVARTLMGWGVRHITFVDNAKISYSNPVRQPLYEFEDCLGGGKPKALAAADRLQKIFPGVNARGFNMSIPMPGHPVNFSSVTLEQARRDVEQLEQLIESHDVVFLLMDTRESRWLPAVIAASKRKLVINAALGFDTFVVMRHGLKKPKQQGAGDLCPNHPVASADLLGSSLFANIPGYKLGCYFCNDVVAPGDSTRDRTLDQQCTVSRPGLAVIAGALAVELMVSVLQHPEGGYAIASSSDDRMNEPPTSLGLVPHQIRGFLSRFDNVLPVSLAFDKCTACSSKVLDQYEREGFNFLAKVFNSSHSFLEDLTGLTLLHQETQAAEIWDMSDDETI

Row | Compound | pIC50 | inhibition at 0.111 µM [%]
1 | CSc1nn([C@H]2C[C@H](O)[C@@H](COS(N)(=O)=O)O2)c2ncnc(N)c12 [Compound I-200, {(2R,3S,5R)-5-[4-amino-3-(methylsulfanyl)-1H-pyrazolo[3,4-d]pyrimidin-1-yl]-3-hydroxytetrahydrofuran-2-yl}methyl Sulfamate] | 7.30 to 7.70 | 70
2 | Nc1ncnc2c1c(SCC1CC1)nn2[C@H]1C[C@H](O)[C@@H](COS(N)(=O)=O)O1 [Compound I-202, [(2R,3S,5R)-5-{4-amino-3-[(cyclopropylmethyl)sulfanyl]-1H-pyrazolo[3,4-d]pyrimidin-1-yl}-3-hydroxytetrahydrofuran-2-yl]methyl Sulfamate] | 7.00 to 7.30 | 62
3 | Cc1csc(Sc2nn([C@H]3C[C@H](O)[C@@H](COS(N)(=O)=O)O3)c3ncnc(N)c23)n1 [Compound I-208, [(2R,3S,5R)-5-{4-amino-3-[(4-methyl-1,3-thiazol-2-yl)sulfanyl]-1H-pyrazolo[3,4-d]pyrimidin-1-yl}-3-hydroxytetrahydrofuran-2-yl]methyl sulfamate] | 6.30 to 7.00 | 44
4 | Nc1ncnc2c1c(C(F)(F)F)nn2[C@H]1C[C@H](O)[C@H](COS(N)(=O)=O)O1 [Compound I-209, {(2S,3S,5R)-5-[4-amino-3-(trifluoromethyl)-1H-pyrazolo[3,4-d]pyrimidin-1-yl]-3-hydroxytetrahydrofuran-2-yl}methyl Sulfamate] | 6.30 to 7.00 | 42
5 | CCc1nn([C@H]2C[C@H](O)[C@H](COS(N)(=O)=O)O2)c2ncnc(N)c12 [Compound I-212, [(2S,3S,5R)-5-(4-amino-3-ethyl-1H-pyrazolo[3,4-d]pyrimidin-1-yl)-3-hydroxytetrahydrofuran-2-yl]methylsulfamate] | – | 7
6 | CCSc1nn([C@H]2C[C@H](O)[C@H](COS(N)(=O)=O)O2)c2ncnc(N)c12 [Compound I-213, {(2S,3S,5R)-5-[4-amino-3-(ethylsulfanyl)-1H-pyrazolo[3,4-d]pyrimidin-1-yl]-3-hydroxytetrahydrofuran-2-yl}methyl sulfamate] | 6.30 to 7.00 | 46
7 | Nc1ncnc2c1c(C(F)F)nn2[C@H]1C[C@H](O)[C@H](COS(N)(=O)=O)O1 [Compound I-217, {(2S,3S,5R)-5-[4-amino-3-(difluoromethyl)-1H-pyrazolo[3,4-d]pyrimidin-1-yl]-3-hydroxytetrahydrofuran-2-yl}methyl Sulfamate] | 6.30 to 7.00 | 34
8 | Cc1nn([C@H]2C[C@H](O)[C@H](COS(N)(=O)=O)O2)c2ncnc(N)c12 [Compound I-218, [(2S,3S,5R)-5-(4-amino-3-methyl-1H-pyrazolo[3,4-d]pyrimidin-1-yl)-3-hydroxytetrahydrofuran-2-yl]methyl Sulfamate] | < 6.30 | 8
9 | CC(C)Sc1nn([C@H]2C[C@H](O)[C@H](COS(N)(=O)=O)O2)c2ncnc(N)c12 [Compound I-220, {(2S,3S,5R)-5-[4-amino-3-(isopropylsulfanyl)-1H-pyrazolo[3,4-d]pyrimidin-1-yl]-3-hydroxytetrahydrofuran-2-yl}methyl sulfamate] | 7.00 to 7.30 | 65
10 | Nc1ncnc2c1c(SCc1ccccc1)nn2[C@H]1C[C@H](O)[C@H](COS(N)(=O)=O)O1 [Compound I-221, {(2S,3S,5R)-5-[4-amino-3-(benzylsulfanyl)-1H-pyrazolo[3,4-d]pyrimidin-1-yl]-3-hydroxytetrahydrofuran-2-yl}methyl Sulfamate] | 6.30 to 7.00 | 26
11 | COc1nn([C@H]2C[C@H](O)[C@H](COS(N)(=O)=O)O2)c2ncnc(N)c12 [Compound I-225, [(2S,3S,5R)-5-(4-amino-3-methoxy-1H-pyrazolo[3,4-d]pyrimidin-1-yl)-3-hydroxytetrahydrofuran-2-yl]methyl sulfamate] | < 6.30 | 10
12 | Nc1ncnc2c1c(SCC(F)F)nn2[C@H]1C[C@H](O)[C@H](COS(N)(=O)=O)O1 [Compound I-227, [(2S,3S,5R)-5-{4-amino-3-[(2,2-difluoroethyl)sulfanyl]-1H-pyrazolo[3,4-d]pyrimidin-1-yl}-3-hydroxytetrahydrofuran-2-yl]methyl Sulfamate] | 6.30 to 7.00 | 48

Now from value to compound:

Row | pIC50 | inhibition at 0.111 µM [%] | Compound
13 | 7.30 to 7.70 | 68 | Nc1ncnc2c1c(Sc1ccc3c(c1)OCCO3)nn2[C@H]1C[C@H](O)[C@@H](COS(N)(=O)=O)O1 [Compound I-201, {(2R,3S,5R)-5-[4-amino-3-(2,3-dihydro-1,4-benzodioxin-6-ylsulfanyl)-1H-pyrazolo[3,4-d]pyrimidin-1-yl]-3-hydroxytetrahydrofuran-2-yl}methyl sulfamate]
14 | 7.00 to 7.30 | 58 | Nc1ncnc2c1c(Sc1cc3c(cc1F)CCC3)nn2[C@H]1C[C@H](O)[C@@H](COS(N)(=O)=O)O1 [Compound I-203, [(2R,3S,5R)-5-{4-amino-3-[(6-fluoro-2,3-dihydro-1H-inden-5-yl)sulfanyl]-1H-pyrazolo[3,4-d]pyrimidin-1-yl}-3-hydroxytetrahydrofuran-2-yl]methyl Sulfamate]
15 | 6.30 to 7.00 | 50 | Nc1ncnc2c1c(SCc1cc3ccccc3s1)nn2[C@H]1C[C@H](O)[C@@H](COS(N)(=O)=O)O1 [Compound I-204, [(2R,3S,5R)-5-{4-amino-3-[(1-benzothiophen-2-ylmethyl)sulfanyl]-1H-pyrazolo[3,4-d]pyrimidin-1-yl}-3-hydroxytetrahydrofuran-2-yl]methyl sulfamate]
16 | 7.00 to 7.30 | 55 | Cc1cccc(Sc2nn([C@H]3C[C@H](O)[C@@H](COS(N)(=O)=O)O3)c3ncnc(N)c23)c1 [Compound I-205, [(2R,3S,5R)-5-{4-amino-3-[(3-methylphenyl)sulfanyl]-1H-pyrazolo[3,4-d]pyrimidin-1-yl}-3-hydroxytetrahydrofuran-2-yl]methyl sulfamate]
17 | 6.30 to 7.00 | 44 | Nc1ncnc2c1c(Sc1cccc(F)c1)nn2[C@H]1C[C@H](O)[C@@H](COS(N)(=O)=O)O1 [Compound I-206, [(2R,3S,5R)-5-{4-amino-3-[(3-fluorophenyl)sulfanyl]-1H-pyrazolo[3,4-d]pyrimidin-1-yl}-3-hydroxytetrahydrofuran-2-yl]methyl sulfamate]
18 | 7.00 to 7.30 | 65 | COc1ccc(Sc2nn([C@H]3C[C@H](O)[C@@H](COS(N)(=O)=O)O3)c3ncnc(N)c23)cc1OC [Compound I-207, [(2R,3S,5R)-5-{4-amino-3-[(3,4-dimethoxyphenyl)sulfanyl]-1H-pyrazolo[3,4-d]pyrimidin-1-yl}-3-hydroxytetrahydrofuran-2-yl]methyl sulfamate]
19 | 6.30 to 7.00 | 35 | Nc1ncnc2c1c(Sc1ccc3ccccc3c1)nn2[C@H]1C[C@H](O)[C@H](COS(N)(=O)=O)O1 [Compound I-210, {(2S,3S,5R)-5-[4-amino-3-(2-naphthylsulfanyl)-1H-pyrazolo[3,4-d]pyrimidin-1-yl]-3-hydroxytetrahydrofuran-2-yl}methyl Sulfamate]
20 | 6.30 to 7.00 | 43 | Cc1ccc(Sc2nn([C@H]3C[C@H](O)[C@H](COS(N)(=O)=O)O3)c3ncnc(N)c23)cc1 [Compound I-214, [(2S,3S,5R)-5-{4-amino-3-[(4-methylphenyl)sulfanyl]-1H-pyrazolo[3,4-d]pyrimidin-1-yl}-3-hydroxytetrahydrofuran-2-yl]methyl sulfamate]
21 | 6.30 to 7.00 | 45 | Nc1ncnc2c1c(Sc1ccccc1F)nn2[C@H]1C[C@H](O)[C@H](COS(N)(=O)=O)O1 [Compound I-215, [(2S,3S,5R)-5-{4-amino-3-[(2-fluorophenyl)sulfanyl]-1H-pyrazolo[3,4-d]pyrimidin-1-yl}-3-hydroxytetrahydrofuran-2-yl]methyl sulfamate]
22 | 6.30 to 7.00 | 41 | Nc1ncnc2c1c(Sc1ccc3c(c1)CCC3)nn2[C@H]1C[C@H](O)[C@H](COS(N)(=O)=O)O1 [Compound I-216, {(2S,3S,5R)-5-[4-amino-3-(2,3-dihydro-1H-inden-5-ylsulfanyl)-1H-pyrazolo[3,4-d]pyrimidin-1-yl]-3-hydroxytetrahydrofuran-2-yl}methyl sulfamate]
23 | 6.30 to 7.00 | 48 | CSc1nn([C@H]2C[C@H](O)[C@H](COS(N)(=O)=O)O2)c2ncnc(N)c12 [Compound I-219, {(2S,3S,5R)-5-[4-amino-3-(methylsulfanyl)-1H-pyrazolo[3,4-d]pyrimidin-1-yl]-3-hydroxytetrahydrofuran-2-yl}methyl Sulfamate]
24 | 7.00 to 7.30 | 59 | Nc1ncnc2c1c(Sc1ccc(Cl)cn1)nn2[C@H]1C[C@H](O)[C@H](COS(N)(=O)=O)O1 [Compound I-222, [(2S,3S,5R)-5-{4-amino-3-[(5-chloropyridin-2-yl)sulfanyl]-1H-pyrazolo[3,4-d]pyrimidin-1-yl}-3-hydroxytetrahydrofuran-2-yl]methyl sulfamate]
25 | 6.30 to 7.00 | 35 | Nc1ncnc2c1c(Sc1ccc(F)cc1)nn2[C@H]1C[C@H](O)[C@H](COS(N)(=O)=O)O1 [Compound I-223, [(2S,3S,5R)-5-{4-amino-3-[(4-fluorophenyl)sulfanyl]-1H-pyrazolo[3,4-d]pyrimidin-1-yl}-3-hydroxytetrahydrofuran-2-yl]methyl sulfamate]
26 | 6.30 to 7.00 | 39 | Nc1ncnc2c1c(Sc1cccc(Cl)c1)nn2[C@H]1C[C@H](O)[C@H](COS(N)(=O)=O)O1 [Compound I-224, [(2S,3S,5R)-5-{4-amino-3-[(3-chlorophenyl)sulfanyl]-1H-pyrazolo[3,4-d]pyrimidin-1-yl}-3-hydroxytetrahydrofuran-2-yl]methyl sulfamate]
